This is an account of results in ChEMBL document CHEMBL1145202, “A series of ligands displaying a remarkable agonistic-antagonistic profile at the adenosine A1 receptor” (J Med Chem, 2005).

The target of test [1] is T1, Adenosine receptor A3 (Homo sapiens) (UniProt P0DMS8).
T1 sequence (whole entry): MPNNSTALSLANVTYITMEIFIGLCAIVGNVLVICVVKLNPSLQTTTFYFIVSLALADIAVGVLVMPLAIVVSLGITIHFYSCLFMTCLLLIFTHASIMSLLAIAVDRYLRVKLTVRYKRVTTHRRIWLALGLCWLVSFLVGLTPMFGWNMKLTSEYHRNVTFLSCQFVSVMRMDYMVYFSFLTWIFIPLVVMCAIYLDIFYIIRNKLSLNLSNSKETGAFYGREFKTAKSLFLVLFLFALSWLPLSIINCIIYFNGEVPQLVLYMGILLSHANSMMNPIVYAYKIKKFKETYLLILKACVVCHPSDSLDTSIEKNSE
The experiment in a line: Percent displacement of [125I]AB-MECA binding to human adenosine A3 receptor expressed in HEK 293 cells at 1 uM. The class given is cell-based. As to conditions: HEK293. In general terms: Displacement assays read how much labelled ligand stays bound in the presence of the test substance.

The target in test [2] is Adenosine receptor A2a (Homo sapiens) (UniProt P29274). Briefly: Percent displacement of [3H]-ZM 241385 binding to human adenosine A2A receptor expressed in CHO cells at 1 uM. In kind it is cell-based.
Adenosine receptor A2a (Homo sapiens), sequence (P29274 whole entry): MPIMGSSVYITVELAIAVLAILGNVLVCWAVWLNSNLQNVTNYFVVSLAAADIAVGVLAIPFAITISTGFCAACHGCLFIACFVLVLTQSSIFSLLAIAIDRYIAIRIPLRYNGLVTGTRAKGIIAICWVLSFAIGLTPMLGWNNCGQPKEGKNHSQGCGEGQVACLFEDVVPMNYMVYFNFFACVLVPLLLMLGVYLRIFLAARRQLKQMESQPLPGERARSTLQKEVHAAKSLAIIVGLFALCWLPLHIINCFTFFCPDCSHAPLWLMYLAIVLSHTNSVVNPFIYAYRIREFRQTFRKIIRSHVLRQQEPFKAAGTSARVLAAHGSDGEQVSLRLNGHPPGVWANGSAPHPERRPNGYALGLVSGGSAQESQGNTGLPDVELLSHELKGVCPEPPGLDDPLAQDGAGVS
The next test has as its target T2, Adenosine receptor A1 (Homo sapiens, UniProt P30542).
T2 sequence (P30542 whole entry): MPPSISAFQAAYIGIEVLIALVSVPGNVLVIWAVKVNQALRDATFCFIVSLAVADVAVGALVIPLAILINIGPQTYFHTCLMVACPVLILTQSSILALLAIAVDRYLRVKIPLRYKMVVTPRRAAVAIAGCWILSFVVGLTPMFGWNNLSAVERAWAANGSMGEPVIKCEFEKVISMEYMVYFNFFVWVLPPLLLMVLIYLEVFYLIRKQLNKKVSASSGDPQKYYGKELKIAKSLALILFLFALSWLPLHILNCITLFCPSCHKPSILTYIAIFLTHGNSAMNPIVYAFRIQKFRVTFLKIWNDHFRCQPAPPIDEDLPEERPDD
Briefly: biochemical.

Test [3] has as its target T3, Adenosine receptor A1 (Homo sapiens) (UniProt P30542).
T3 sequence (whole entry): T2 sequence (P30542 whole entry)
The experiment in a line: Effect on forskolin-induced cAMP levels at human A1 adenosine receptor compared to CPA (full agonist, 100% inhibition) and DPCPX(full inverse agonist, 100% stimulation). The class given is functional. Background: Changes in cAMP serve as a functional read-out for many G protein-coupled receptors.

The target in test [4] is T3, Adenosine receptor A1 (Homo sapiens). Briefly: Percent displacement of [3H]DPCPX binding to human adenosine A1 receptor expressed in CHO cells at 1 uM. The class given is cell-based.

As to `Cc1ccc(-c2c(C#N)c(N)nc(SCCO)c2C#N)cc1`, the results for the Displacement in test [1] and in test [2] were 0% and 20%, respectively. The compound also returned a Ki on Adenosine receptor A1 of 49 nM. Also, the Change in cAMP in test [3] is -16%.
In the case of `COc1ccc(-c2c(C#N)c(N)nc(SCCO)c2C#N)cc1`, the results for the Displacement in test [1] and in test [2] were 21% and 8%, respectively. Besides, the Ki at Adenosine receptor A1 was determined as 41 nM. In test [3], the Change in cAMP is -16%.
For `N#Cc1c(N)nc(SCCO)c(C#N)c1-c1ccc(F)cc1` the same measures were 0%, 4%, 81 nM and -51%.
The corresponding values for `N#Cc1c(N)nc(SCCO)c(C#N)c1-c1ccc(O)cc1` are 0%, 37%, 23 nM and -93%.
Regarding `Cn1cnc2c(NC3CCCC3)ncnc21`, in test [1], the Displacement was 15%. Also, the Ki at Adenosine receptor A1 worked out at 1080 nM. For the same compound, the Change in cAMP in test [3] came to 72%.
For the compound `N#Cc1c(N)nc(SCCO)c(C#N)c1-c1cccc(F)c1`, the Displacement in test [1] was determined as 8%; in test [2], 19%. Besides, at Adenosine receptor A1, the affinity, expressed as Ki, was 40 nM. In addition, the Change in cAMP in test [3] is -102%.
`COc1ccc(-c2c(C#N)c(N)nc(SCCO)c2C#N)cc1OC`: the Displacement in test [1] turned out to be 0%; in test [2] it was 25%; in test [4], 25%.
As for `N#Cc1c(N)nc(SCCO)c(C#N)c1-c1cccc(OC(F)(F)F)c1`, the Displacement in test [1] stood at 11%; in test [2] it was 3%. Moreover, affinity at Adenosine receptor A1 was put at a Ki of 30 nM. Besides, the Change in cAMP in test [3] turned out to be 80%.
Turning to `OC[C@H]1O[C@@H](n2cnc3c(NC4CCCC4)ncnc32)[C@H](O)[C@@H]1O`, in test [3], the Change in cAMP is -100%.
As to `Cc1cccc(-c2c(C#N)c(N)nc(SCCO)c2C#N)c1`, the Displacement in test [1] came out at 5%; in test [2] it was 29%. The compound also displayed a Ki on Adenosine receptor A1 of 81 nM. The Change in cAMP in test [3] was -78%.
Regarding `N#Cc1c(N)nc(SCCO)c(C#N)c1-c1ccc(OC(F)(F)F)cc1`, the values for the Displacement in test [1] and in test [2] were 10% and 0%, respectively. The Ki at Adenosine receptor A1 was 156 nM. In test [3], the Change in cAMP was 12%.
For `N#Cc1c(N)nc(SCCO)c(C#N)c1-c1ccc(OC(F)F)cc1` the same measures were 23%, 0%, 34 nM and 4%.
As to `CN(C)c1ccc(-c2c(C#N)c(N)nc(SCCO)c2C#N)cc1`, the Displacement in test [1] amounted to 7%; in test [2], 0%. The compound also showed a Ki at Adenosine receptor A1 of 245 nM. For the same compound, the Change in cAMP in test [3] was -65%.
The corresponding values for `N#Cc1c(N)nc(SCCO)c(C#N)c1-c1cccc(C(F)(F)F)c1` are 49%, 22%, 14 nM and 85%.
For `N#Cc1c(N)nc(SCCO)c(C#N)c1-c1ccccc1` the same measures were 26%, 23%, 15 nM and -72%.
As to `CCCn1c(=O)c2[nH]c(C3CCCC3)nc2n(CCC)c1=O`, the Change in cAMP in test [3] is 100%.
Consider `N#Cc1c(N)nc(SCCO)c(C#N)c1-c1cccc(OC(F)F)c1`, for which the Displacement in test [1] was found to be 12%; in test [2], 8%. The compound also registered a Ki on Adenosine receptor A1 of 40 nM. For the same compound, in test [3], the Change in cAMP stood at 6%.
Consider `N#Cc1c(N)nc(SCCO)c(C#N)c1-c1cccc(O)c1`, for which the figures for the Displacement in test [1] and in test [2] were 16% and 25%, respectively. The same compound gave a Ki on Adenosine receptor A1 of 12 nM. Also, the Change in cAMP in test [3] is -105%.
Turning to `COc1cccc(-c2c(C#N)c(N)nc(SCCO)c2C#N)c1`, the results for the Displacement in test [1] and in test [2] were 18% and 21%, respectively. Besides, the Ki at Adenosine receptor A1 came to 4.3 nM. Also, in test [3], the Change in cAMP was -58%.
For `N#Cc1c(N)nc(SCCO)c(C#N)c1-c1ccc(C(F)(F)F)cc1` the same measures were 0%, 13%, 150 nM and 48%.
The corresponding values for `N#Cc1c(N)nc(SCCO)c(C#N)c1-c1ccc2c(c1)OCO2` are 13%, 33%, 11 nM and -111%.

By Ki is commonly meant the dissociation constant of the complex between target and ligand, obtained from inhibition or displacement. A low value points to a stronger hold on the target.
